Measured values reported in patent US10392373B2, “Oxazole derivatives that inhibit Syk” (AB Science, priority 2015, dated 2019).

Biological target: T1, SYK kinase (Homo sapiens, UniProt P43405)
T1 construct: SYK kinase was purified as a full length protein in a baculovirus system near homogeneity; made in house
Assay: In vitro Syk inhibition assay (Kinase TK HTRF, Cisbio)
Type: biochemical
Conditions: full length SYK purified from a baculovirus system; ATP at least twice the Km; room temperature; average of triplicate; read-out: IC50: Concentration inhibiting 50% of protein kinase
Procedure: Protocol Inhibition Assays.
SYK kinase was purified as a full length protein in a baculovirus system near homogeneity. All kinase assays were performed with the Kinase TK (tyrosine kinase) HTRF (Homogeneous Time Resolved Fluorescence) assay developed by Cisbio international. These assays were carried out at room temperature in 96-wells half-area white plates in a final volume of 25 μl of kinase buffer (10 mM MgCl2; 2 mM MnCl2; 50 mM Sodium-HEPES pH 7.8; BRIJ-35 0.01%, 1 μM substrate) containing ATP at a concentration of at least twice the Km for each enzyme and an appropriate amount of recombinant enzyme to ensure a linear reaction rate. Reactions were initiated upon introduction of the enzyme and terminated with the addition of one reaction volume (25 μl) of HTRF detection buffer. Plates were incubated for one hour at room temperature and the time resolved Fluorescence resonance energy transfer signal was measured in a Pherastar FS microplate reader (BMG Labtech). All data are the average of triplicate results with a standard deviation <10%.

Row | SMILES | IC50 [nM]
1 | CC1C(=O)NCCN1c1ncc(-c2cccc(Nc3nccc(N4CCN(C)CC4)n3)c2)o1 (centres unmarked) [Compound 029, 3-Methyl-4-(5-{3-[4-(4-methyl-piperazin-1-yl)-pyrimidin-2-ylamino]-phenyl}-oxazol-2-yl)-piperazin-2-one] | 1000 to 10000
2 | CCC1C(=O)NCCN1c1ncc(-c2cccc(Nc3nccc(C(F)(F)F)n3)c2)o1 (centres unmarked) [Compound 011, 3-Ethyl-4-{5-[3-((4-trifluoromethyl)-pyrimidin-2-ylamino)-phenyl]-oxazol-2-yl}-piperazin-2-one] | ≤ 100
3 | CCc1ccnc(Nc2cccc(-c3cnc(N4CCNC(=O)C4C)o3)c2)n1 (centres unmarked) [Compound 004, 4-{5-[3-(4-Ethyl-pyrimidin-2-ylamino)-phenyl]-oxazol-2-yl}-3-methyl-piperazin-2-one] | ≤ 100
4 | CC(C)c1ccnc(Nc2cccc(-c3cnc(N4CCNC(=O)C4C)o3)c2)n1 (centres unmarked) [Compound 021, 4-{5-[3-(4-Isopropyl-pyrimidin-2-ylamino)-phenyl]-oxazol-2-yl}-3-methyl-piperazin-2-one] | ≤ 100
5 | CC(C)C1C(=O)NCCN1c1ncc(-c2cccc(Nc3nccc(N4CCN(C)CC4)n3)c2)o1 (centres unmarked) [Compound 035, 3-Isopropyl-4-(5-{3-[4-(4-methyl-piperazin-1-yl)-pyrimidin-2-ylamino]-phenyl}-oxazol-2-yl)-piperazin-2-one] | 1000 to 10000
6 | Cc1ccnc(Nc2cc(CN(C)C)cc(-c3cnc(N4CCNC(=O)C4(C)C)o3)c2)n1 [Compound 044, 4-{5-[3-Dimethylaminomethyl-5-(4-methyl-pyrimidin-2-ylamino)-phenyl]-oxazol-2-yl}-3,3-dimethyl-piperazin-2-one] | 100 to 1000
7 | CC1C(=O)NCCN1c1ncc(-c2cccc(Nc3nccc(C4CC4)n3)c2)o1 (centres unmarked) [Compound 041, 4-{5-[3-(4-Cyclopropyl-pyrimidin-2-ylamino)-phenyl]-oxazol-2-yl}-3-methyl-piperazin-2-one] | ≤ 100
8 | CC1C(=O)NCCN1c1ncc(-c2cccc(Nc3nccc(-c4cccs4)n3)c2)o1 (centres unmarked) [Compound 010, 3-Methyl-4-{5-[3-(4-thiophen-2-yl-pyrimidin-2-ylamino)-phenyl]-oxazol-2-yl}-piperazin-2-one] | ≤ 100
9 | CCc1ccnc(Nc2cccc(-c3cnc(N4CCNC(=O)C4(C)C)o3)c2)n1 [Compound 037, 4-{5-[3-(4-Ethyl-pyrimidin-2-ylamino)-phenyl]-oxazol-2-yl}-3,3-dimethyl-piperazin-2-one] | ≤ 100
10 | CCc1cnc(Nc2cccc(-c3cnc(N4CCNC(=O)C4C)o3)c2)nc1 (centres unmarked) [Compound 016, 4-{5-[3-(5-Ethyl-pyrimidin-2-ylamino)-phenyl]-oxazol-2-yl}-3-methyl-piperazin-2-one] | 1000 to 10000
11 | CC(C)C1C(=O)NCCN1c1ncc(-c2cccc(Nc3nccc(N4CCCC4)n3)c2)o1 (centres unmarked) [Compound 034, 3-Isopropyl-4-{5-[3-(4-pyrrolidin-1-yl-pyrimidin-2-ylamino)-phenyl]-oxazol-2-yl}-piperazin-2-one] | 1000 to 10000
12 | CC(C)c1ccnc(Nc2cccc(-c3cnc(N4CCNC(=O)C4(C)C)o3)c2)n1 [Compound 023, 4-{5-[3-(4-Isopropyl-pyrimidin-2-ylamino)-phenyl]-oxazol-2-yl}-3,3-dimethyl-piperazin-2-one] | ≤ 100
13 | CCCc1cnc(Nc2cccc(-c3cnc(N4CCNC(=O)C4C)o3)c2)nc1 (centres unmarked) [Compound 006, 3-Methyl-4-{5-[3-(5-propyl-pyrimidin-2-ylamino)-phenyl]-oxazol-2-yl}-piperazin-2-one] | 1000 to 10000
14 | Cc1ccnc(Nc2cccc(-c3cnc(N4CCNC(=O)[C@@H]4C)o3)c2)n1 [Compound 019, (S)-3-Methyl-4-{5-[3-(4-methyl-pyrimidin-2-ylamino)-phenyl]-oxazol-2-yl}-piperazin-2-one] | ≤ 100
15 | CC1C(=O)NCCN1c1ncc(-c2cc(CN3CCOCC3)cc(Nc3nccc(C#N)n3)c2)o1 (centres unmarked) [Compound 008, 2-{3-[2-(2-Methyl-3-oxo-piperazin-1-yl)-oxazol-5-yl]-5-(morpholin-4-ylmethyl)-phenylamino}-pyrimidine-4-carbonitrile] | ≤ 100
16 | Cc1ccnc(Nc2cc(CN3CCOCC3)cc(-c3cnc(N4CCNC(=O)C4C)o3)c2)n1 (centres unmarked) [Compound 014, 3-Methyl-4-{5-[3-(4-methyl-pyrimidin-2-ylamino)-5-morpholin-4-ylmethyl-phenyl]-oxazol-2-yl}-piperazin-2-one] | 100 to 1000
17 | CC1C(=O)NCCN1c1ncc(-c2cccc(Nc3nccc(N4CCCC4)n3)c2)o1 (centres unmarked) [Compound 028, 3-Methyl-4-{5-[3-(4-pyrrolidin-1-yl-pyrimidin-2-ylamino)-phenyl]-oxazol-2-yl}-piperazin-2-one] | 100 to 1000
18 | CC1C(=O)NCCN1c1ncc(-c2cccc(Nc3nccc(N4CCOCC4)n3)c2)o1 (centres unmarked) [Compound 027, 3-Methyl-4-{5-[3-(4-morpholin-4-yl-pyrimidin-2-ylamino)-phenyl]-oxazol-2-yl}-piperazin-2-one] | 100 to 1000

Row | SMILES | IC50 [nM]
19 | CC1(C)C(=O)NCCN1c1ncc(-c2cccc(Nc3nccc(C(F)(F)F)n3)c2)o1 [Compound 018, 3,3-Dimethyl-4-{5-[3-((4-trifluoromethyl)-pyrimidin-2-ylamino)-phenyl]-oxazol-2-yl}-piperazin-2-one] | ≤ 100
20 | Cc1ccnc(Nc2cc(CN3CCCC3)cc(-c3cnc(N4CCNC(=O)C4(C)C)o3)c2)n1 [Compound 045, 3,3-Dimethyl-4-{5-[3-(4-methyl-pyrimidin-2-ylamino)-5-pyrrolidin-1-ylmethyl-phenyl]-oxazol-2-yl}-piperazin-2-one] | 100 to 1000
21 | CC(C)C1C(=O)NCCN1c1ncc(-c2cccc(Nc3nccc(C4CC4)n3)c2)o1 (centres unmarked) [Compound 043, 4-{5-[3-(4-Cyclopropyl-pyrimidin-2-ylamino)-phenyl]-oxazol-2-yl}-3-isopropyl-piperazin-2-one] | ≤ 100
22 | CC(C)C1C(=O)NCCN1c1ncc(-c2cccc(Nc3nccc(C(F)(F)F)n3)c2)o1 (centres unmarked) [Compound 012, 3-Isopropyl-4-{5-[3-((4-trifluoromethyl)-pyrimidin-2-ylamino)-phenyl]-oxazol-2-yl}-piperazin-2-one] | ≤ 100
23 | CN1CCN(c2ccnc(Nc3cccc(-c4cnc(N5CCNC(=O)C5(C)C)o4)c3)n2)CC1 [Compound 031, 3,3-Dimethyl-4-(5-{3-[4-(4-methyl-piperazin-1-yl)-pyrimidin-2-ylamino]-phenyl}-oxazol-2-yl)-piperazin-2-one] | 1000 to 10000
24 | CCc1ccnc(Nc2cccc(-c3cnc(N4CCNC(=O)C4C(C)C)o3)c2)n1 (centres unmarked) [Compound 038, 4-{5-[3-(4-Ethyl-pyrimidin-2-ylamino)-phenyl]-oxazol-2-yl}-3-isopropyl-piperazin-2-one] | ≤ 100
25 | CC1C(=O)NCCN1c1ncc(-c2cccc(Nc3nccc(C#N)n3)c2)o1 (centres unmarked) [Compound 017, 2-{3-[2-(2-Methyl-3-oxo-piperazin-1-yl)-oxazol-5-yl]-phenylamino}-pyrimidine-4-carbonitrile] | ≤ 100
26 | Cc1ccnc(Nc2cccc(-c3cnc(N4CCNC(=O)C4C(C)C)o3)c2)n1 (centres unmarked) [Compound 003, 3-Isopropyl-4-{5-[3-(4-methyl-pyrimidin-2-ylamino)-phenyl]-oxazol-2-yl}-piperazin-2-one] | ≤ 100
27 | Cc1ccnc(Nc2cccc(-c3cnc(N4CCNC(=O)[C@H]4C)o3)c2)n1 [Compound 007, (R)-3-Methyl-4-{5-[3-(4-methyl-pyrimidin-2-ylamino)-phenyl]-oxazol-2-yl}-piperazin-2-one] | ≤ 100
28 | COc1ccnc(Nc2cccc(-c3cnc(N4CCNC(=O)C4C)o3)c2)n1 (centres unmarked) [Compound 013, 4-{5-[3-(4-Methoxy-pyrimidin-2-ylamino)-phenyl]-oxazol-2-yl}-3-methyl-piperazin-2-one] | ≤ 100
29 | CC1(C)C(=O)NCCN1c1ncc(-c2cccc(Nc3nccc(N4CCCC4)n3)c2)o1 [Compound 032, 3,3-Dimethyl-4-{5-[3-(4-pyrrolidin-1-yl-pyrimidin-2-ylamino)-phenyl]-oxazol-2-yl}-piperazin-2-one] | 1000 to 10000
30 | CCC1C(=O)NCCN1c1ncc(-c2cccc(Nc3nccc(C)n3)c2)o1 (centres unmarked) [Compound 020, 3-Ethyl-4-{5-[3-(4-methyl-pyrimidin-2-ylamino)-phenyl]-oxazol-2-yl}-piperazin-2-one] | ≤ 100
31 | Cc1ccnc(Nc2cccc(-c3cnc(N4CCNC(=O)C4(C)C)o3)c2)n1 [Compound 002, 3,3-Dimethyl-4-{5-[3-(4-methyl-pyrimidin-2-ylamino)-phenyl]-oxazol-2-yl}-piperazin-2-one] | ≤ 100
32 | Cc1ccnc(Nc2cccc(-c3cnc(N4CCNC(=O)C4CCO)o3)c2)n1 (centres unmarked) [Compound 024, 3-(2-Hydroxy-ethyl)-4-{5-[3-(4-methyl-pyrimidin-2-ylamino)-phenyl]-oxazol-2-yl}-piperazin-2-one] | 100 to 1000
33 | Cc1ccnc(Nc2cccc(-c3cnc(N4CCNC(=O)[C@@H]4C(C)C)o3)c2)n1 [Compound 039, (S)-3-Isopropyl-4-{5-[3-(4-methyl-pyrimidin-2-ylamino)-phenyl]-oxazol-2-yl}-piperazin-2-one] | 100 to 1000
34 | Cc1ccnc(Nc2cccc(-c3cnc(N4CCNC(=O)C4C)o3)c2)n1 (centres unmarked) [Compound 001, 3-Methyl-4-{5-[3-(4-methyl-pyrimidin-2-ylamino)-phenyl]-oxazol-2-yl}-piperazin-2-one] | ≤ 100
35 | CC1C(=O)NCCN1c1ncc(-c2cc(CN3CCOCC3)cc(Nc3nccc(C(F)(F)F)n3)c2)o1 (centres unmarked) [Compound 015, 3-Methyl-4-{5-[3-morpholin-4-ylmethyl-5-((4-trifluoromethyl)-pyrimidin-2-ylamino)-phenyl]-oxazol-2-yl}-piperazin-2-one] | ≤ 100
